What was measured:
P-glycoprotein = P-glycoprotein (Homo sapiens, UniProt P08183); assay: Rhodamine 123 transport assay across HCT-8 cell monolayers; details: compound 10 μM, Rh123 15 μM, HCT-8 cells; for inhibition at 10 μM: human, HCT-8 cell monolayers in Transwell dishes, probe Rhodamine 123 (15 μM), % Inhibition of R123 Transport
Experimental: The human ileocecal adenocarcinoma cell line HCT-8 was grown in RPMI-1640 medium supplemented with 10% horse serum, 1 mM sodium pyruvate and 0.01 mg/ml gentamicin. All cells were maintained in a humidified atmosphere with 5% CO2 at 37° C.
Rhodamine 123 transport was examined as previously described (Hunter J. et al., Simmons, Br. J. Cancer, 64: 437444 (1991); Kim A. E. et al., J. Pharm. Exp. Ther., 286: 1439-1445 (1998)) using HCT-8 cells. Particularly, cells were grown in 6 well Corning Transwell dishes until a tight monolayer was formed. Rh123 was added at a final concentration of 15 μM to the basal or apical compartments and 200 μl samples were taken at the indicated times from the opposite chamber. Fluorescence of Rh123 in the media samples was measured using a fluorescence plate reader with an excitation wavelength of 485 nm and an emission wavelength of 530 nm.

[1] = system: MDR1-expressing NIH 3T3 cells; assay: Cytotoxicity (MTT) assay: modulation of drug cytotoxicity in multidrug resistant cells; details: compound 5 μM; 50 nM doxorubicin; 72 hours; MTT

P-glycoprotein, sequence (P08183 whole entry): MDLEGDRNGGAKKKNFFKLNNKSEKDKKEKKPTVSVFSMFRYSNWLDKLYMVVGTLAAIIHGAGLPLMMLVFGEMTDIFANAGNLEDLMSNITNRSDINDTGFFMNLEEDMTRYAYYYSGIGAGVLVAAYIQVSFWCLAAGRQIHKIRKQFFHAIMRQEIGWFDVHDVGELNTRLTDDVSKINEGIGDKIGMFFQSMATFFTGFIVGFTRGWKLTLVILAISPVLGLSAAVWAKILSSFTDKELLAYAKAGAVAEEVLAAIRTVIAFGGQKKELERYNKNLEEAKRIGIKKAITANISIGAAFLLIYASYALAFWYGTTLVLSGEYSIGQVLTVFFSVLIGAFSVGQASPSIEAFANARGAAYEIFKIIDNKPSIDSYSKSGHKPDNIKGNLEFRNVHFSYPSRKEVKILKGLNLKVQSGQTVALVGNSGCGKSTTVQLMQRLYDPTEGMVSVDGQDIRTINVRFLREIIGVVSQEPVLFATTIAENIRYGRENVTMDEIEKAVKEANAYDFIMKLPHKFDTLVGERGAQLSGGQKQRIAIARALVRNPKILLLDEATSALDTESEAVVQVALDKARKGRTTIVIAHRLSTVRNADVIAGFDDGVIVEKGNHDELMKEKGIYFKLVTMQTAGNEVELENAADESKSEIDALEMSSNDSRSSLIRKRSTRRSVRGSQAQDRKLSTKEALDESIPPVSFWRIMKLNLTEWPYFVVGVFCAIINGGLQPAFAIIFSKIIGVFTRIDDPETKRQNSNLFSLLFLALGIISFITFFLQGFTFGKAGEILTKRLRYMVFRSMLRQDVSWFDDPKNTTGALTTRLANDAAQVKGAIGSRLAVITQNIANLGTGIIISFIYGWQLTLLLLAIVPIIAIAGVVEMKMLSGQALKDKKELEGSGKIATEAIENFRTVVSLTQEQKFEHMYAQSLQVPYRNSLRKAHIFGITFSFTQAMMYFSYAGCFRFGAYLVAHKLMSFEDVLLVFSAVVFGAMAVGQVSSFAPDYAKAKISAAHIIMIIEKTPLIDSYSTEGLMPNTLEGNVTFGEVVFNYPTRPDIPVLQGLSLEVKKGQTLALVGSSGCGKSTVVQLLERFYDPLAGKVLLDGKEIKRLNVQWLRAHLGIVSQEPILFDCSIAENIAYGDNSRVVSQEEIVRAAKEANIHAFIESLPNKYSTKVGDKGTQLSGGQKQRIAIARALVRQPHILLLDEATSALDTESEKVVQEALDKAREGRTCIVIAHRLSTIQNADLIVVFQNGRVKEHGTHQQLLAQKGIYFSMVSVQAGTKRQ

| Structure (SMILES) | inhibition at 10 μM (P-glycoprotein) | % Inhibition of R123 Transport (P-glycoprotein) | Modulation of Drug Resistance (percentage increase in doxorubicin cytotoxicity in the presence of the compounds versus in their absence) [1] |
| --- | --- | --- | --- |
| CCOc1ccccc1N1CCN(C(=O)CC2c3cc(OC)c(OC)cc3C(c3ccc(OC)c(OC)c3)C2C(=O)O)CC1 (stereo not drawn) [AV-250, 1-(3,4-Dimethoxy-phenyl)-3-{2-[4-(2-ethoxy-phenyl)-piperazin-1-yl]-2-oxo-ethyl}-5,6-dimethoxy-indan-2-carboxylic acid] | 55.9% |  | −7.1% |
| COc1ccc(C2c3cc(OC)c(OC)cc3C(CCNC(=O)NCc3ccccc3)C2CNC(=O)NCc2ccccc2)cc1OC (stereo not drawn) [AV-234, 10-benzyl-3-{2-[2-(3-benzyl-ureidomethyl)-3-(3,4-dimethoxyphenyl)-5,6-dimethoxy-indan-1-yl]-ethyl}-urea] |  | 37.58% | 12.50% |
| COc1ccc(C2c3cc(OC)c(OC)cc3C(CCN3CCN(c4ccc(Cl)cc4)CC3)C2CN2CCN(c3ccc(Cl)cc3)CC2)cc1OC (stereo not drawn) [AV-186, 2-{3-(3,4-dimethoxyphenyl)-5,6-dimethoxy-2-[4-(4-chlorophenyl)-piperazin-1-yl-methyl]-indan-1-yl}-1-[4-(4-chlorophenyl)-piperazin-1-yl]-ethane] | 65.8% |  | 64.87% |
| COc1ccc(N2CCN(CCC3c4cc(OC)c(OC)cc4C(c4ccc(OC)c(OC)c4)C3CN3CCN(c4ccc(OC)cc4)CC3)CC2)cc1 (stereo not drawn) [AV-183, 2-{3-(3,4-dimethoxyphenyl)-5,6-dimethoxy-2-[4-(4-methoxy)-piperazin-1-yl-methyl]-indan-1-yl}-1-[4-(4-methoxyphenyl)-piperazin-1-yl]-ethane] |  | 63.0% | 52.24% |
| COc1ccc(N2CCN(C(=O)CC3c4cc(OC)c(OC)cc4C(c4ccc(OC)c(OC)c4)C3C(=O)N3CCN(c4ccc(OC)cc4)CC3)CC2)cc1 (stereo not drawn) [AV-168, 2-{3-(3,4-dimethoxyphenyl)-5,6-dimethoxy-2-[4-(4-methoxyphenyl)-piperazin-1-carbonyl]-indan-1-yl}-1-[4-(4-methoxyphenyl)-1-yl]-ethanone] |  | 81.5% | 73.81% |
| CCCCCCCCCCOc1ccc(C2c3cc(OCCCCCCCCCC)c(OC)cc3C(CC(=O)N3CCN(c4ccccc4OCC)CC3)C2C(=O)N2CCN(c3ccccc3OCC)CC2)cc1OC (stereo not drawn) [AV-209, 2-{5-decyloxy-3-(4-decyloxy-3-methoxyphenyl)-2-[4-(2-ethoxyphenyl)-piperazine-1-carbonyl]-6-methoxy-indan-1-yl}-1-[4-(2-ethoxyphenyl)-piperazin-1-yl]-ethanone] | 47.3% |  | 1.16% |
| COc1ccc(C2c3cc(OC)c(OC)cc3C(CC(=O)N3CCN(c4ccc(Cl)cc4)CC3)C2C(=O)N2CCN(c3ccc(Cl)cc3)CC2)cc1OC (stereo not drawn) [AV-167, 2-[2-[4-(4-chlorophenyl)-piperazin-1 carbonyl]-3-(3,4-dimethoxyphenyl)-5,6-dimethoxy-indan-1-yl]-1-[4-(4-chlorophenyl)piperazine-1-yl]-ethanone] | 66.3% |  | 68.21% |
| CCOc1ccc(C2c3cc(OCC)c(OC)cc3C(CC(=O)N3CCN(c4ccccc4OCC)CC3)C2C(=O)N2CCN(c3ccccc3OCC)CC2)cc1OC (stereo not drawn) [AV-207, 2-{5-ethoxy-3-(4-ethoxy-3-methoxyphenyl)-2-[4-(2-ethoxyphenyl)-piperazine-1-carbonyl]-6-methoxy-indan-1-yl}-1-[4-(2-ethoxyphenyl)-piperazin-1-yl]-ethanone] | 89.7% |  | 55.08% |
| CCCCOc1ccc(C2c3cc(OCCCC)c(OC)cc3C(CC(=O)N3CCN(c4ccccc4OCC)CC3)C2C(=O)N2CCN(c3ccccc3OCC)CC2)cc1OC (stereo not drawn) [AV-208, 2-{5-butoxy-3-(4-butoxy-3-methoxyphenyl)-2-[4-(2-ethoxyphenyl)-piperazine-1-carbonyl]-6-methoxy-indan-1-yl}-1-[4-(2-ethoxyphenyl)-piperazin-1-yl]-ethanone] | 86.1% |  | 51.78% |
| COc1ccc(C2c3cc(OC)c(OC)cc3C(CC(=O)N3CCNCC3)C2C(=O)N2CCNCC2)cc1OC (stereo not drawn) [AV-185, 2-[3-(3,4-dimethoxyphenyl)-5,6-dimethoxy-2-(piperazine-1-carbonyl)-indan-1-yl]-1-piperazin-1-yl-ethanone] | 25.1% |  | 18.48% |
| CCOc1ccccc1N1CCN(C(=O)CC2c3cc(OC)c(OC)cc3C(c3ccc(OC)c(OC)c3)C2C(=O)N2CCN(C)CC2)CC1 (stereo not drawn) [AV-256] |  | 75.61% | 8.7% |
| COc1cc(C2c3cc(O)c(OC)cc3C(CC(=O)N3CCC(Cc4ccccc4)CC3)C2C(=O)N2CCC(Cc3ccccc3)CC2)ccc1O (single isomer, unassigned) [AV-251-2] |  | 75.44% | 2.4% |

Further lines, with some results ahead:

| inhibition at 10 μM (P-glycoprotein) | % Inhibition of R123 Transport (P-glycoprotein) | Structure (SMILES) | Modulation of Drug Resistance (percentage increase in doxorubicin cytotoxicity in the presence of the compounds versus in their absence) [1] |
| --- | --- | --- | --- |
| 80.4% |  | CCOc1ccccc1N1CCN(C(=O)CC2c3cc(OC)c(OC)cc3C(c3ccc(OC)c(OC)c3)C2C(=O)N(C)C)CC1 (stereo not drawn) [AV-257, 1-(3,4-Dimethoxy-phenyl)-3-{2-[4-(2-ethoxy-phenyl)-piperazin-1-yl]-2-oxo-ethyl}-5,6-dimethoxy-indan-2-carboxylic acid dimethylamide] | 8.7% |
|  | 67.09% | CCOc1ccccc1N1CCN(C(=O)CC2c3cc4c(cc3C(c3ccc5c(c3)OCO5)C2C(=O)N2CCN(c3ccccc3OCC)CC2)OCO4)CC1 (single isomer, unassigned) [AV-258-2, 2-{7-benzo[1,3]dioxol-5-yl-6-[4-(2-ethoxy-phenyl)-piperazin-1-carbonyl]-6,7-dihydro-5H-indeno[5,6-d][1,3]dioxol-5-yl}-1-[4-(2-ethoxy-phenyl)-piperazin-1-yl]-ethanone] | 19.2% |
|  | 84.87% | COc1ccc(C2c3cc(OC)c(OC)cc3C(CCNC(=O)c3ccc(C(C)(C)C)cc3)C2CNC(=O)c2ccc(C(C)(C)C)cc2)cc1OC (stereo not drawn) [AV-259] | 3.9% |
|  | 80.78% | COc1ccc(C2c3cc(OC)c(OC)cc3C(CCNC(=O)c3ccc(Br)cc3)C2CNC(=O)c2ccc(Br)cc2)cc1OC (stereo not drawn) [AV-263] | 12.2% |
|  | 83.51% | COc1ccc(C2c3cc(OC)c(OC)cc3C(CCNC(=O)c3ccccc3)C2CNC(=O)c2ccccc2)cc1OC (stereo not drawn) [AV-264] | 6.3% |
|  | 93.0% | COc1ccc(C2c3cc(OC)c(OC)cc3C(CCNC(=O)c3ccccc3OC)C2CNC(=O)c2ccccc2OC)cc1OC (stereo not drawn) [AV-265] | −0.2% |
